The values that follow come from paper PMC12596500, “Affinity-selected peptide ligands specifically bind i-motif DNA and modulate c-Myc gene expression” (Nucleic Acids Research, 2025).

Where two headings read alike, the source gives them in different places. Peptide text beside a SMILES is read from it.

The target in one test is c-MycG52. Briefly: UV titration, c-MycG52. The test is classed as binding. The method, then:
(§1) UV titrations were recorded using an Agilent Cary-60 UV/VIS spectrometer with a 10 mm path length black-walled quartz cuvette. Oligonucleotides (c-MycC27, c-MycC52, c-MycG27, c-MycG52, DAPc, DAPg, and dsDNA; sequences listed in Supplementary Table S1) were annealed as 250 µM stock solutions in 10 mM sodium cacodylate buffer (pH 6.6) in the presence or absence of 100 mM KCl. Spectra were recorded at room temperature over a wavelength range of 300–500 nm with 1 nm intervals. Buffer-only spectra were recorded and subtracted from each dataset as blanks. Peptide ligands were prepared as 1 mM stock solutions in DMSO and added to the cuvette at a final concentration of 10 µM in buffer prior to DNA addition. DNA stock was diluted to 50 µM in buffer and was added stepwise to the peptide solution to reach 2.5 µM final concentration, followed by additions from the 250 µM DNA stock to reach final DNA concentrations of 30 or 50 µM. The absorbance at 350 nm was monitored and plotted against DNA concentration. Binding curves were fitted using a one-site binding model in GraphPad Prism version 10.1.2, and Kd values were determined from normalized data to represent the DNA-ligand bound fraction.
(§2) Despite the demonstrable importance of the extended five-tract C-rich sequence within the c-Myc promoter, most studies looking at ligand binding use the shorter sequences. […] Although the iM-targeting antibody is specific for iM as a structure, it also binds multiple types of iM-structures.

The test system of test [1] is human insulin promoter (ILPR) firefly luciferase reporter in HEK293 cells. Briefly: Dual-luciferase reporter assay, insulin promoter (ILPR). Type of test: cell-based. As to conditions: HEK293, 4 h, 10 µM peptide with Nanocin Pro. (In a reporter assay the amount or activity of a reporter protein is the signal.)
For the next test, the target named is dsDNA. Briefly: UV titration, dsDNA. The settings on record: for Kd dsDNA: UV titration at 350 nm, 10 µM peptide, 10 mM sodium cacodylate pH 6.6, no KCl; for Kd dsDNA, 100 mM KCl: UV titration, 10 mM sodium cacodylate 100 mM potassium chloride pH 6.6, two experiments. Type of test: binding. Further details: key to Kd dsDNA, 100 mM KCl: Binding classified as non-specific (NS) showed no consistent or concentration-dependent pattern, under the tested conditions; key to Kd dsDNA: NS = non-specific binding indicates where no significant pattern of binding was observed at the concentration range of the experiment. As for the experimental part: as §1, §2

Another test deals with c-MycG27. Briefly: CD melting of c-MycG27. Type of test: binding. The settings on record: 10 µM DNA; for TM c-MycG27: 10 mM NaCaco pH 6.6, 10 molar eqv. peptide, mean ± SEM (n=4); for effect on c-MycG27 thermal stability, in words: pH 6.6, 10 molar equivalents peptide. As for the experimental part: (§3) Circular Dichroism (CD) melting experiments were performed in a Jasco J-1500 spectropolarimeter with 10 µM DNA samples in 10 mM sodium cacodylate buffer at pH 6.6 using a 1 mm path length quartz cuvette. […] The samples were kept at 5°C for 5 min before starting the melt, with a temperature increase of 1°C/min, a 0.5°C data interval, and a 60-s holding time at each target temperature. Four scans were accumulated data pitch of 0.5 nm, a scanning speed of 200 nm/min, 1 s response time, 2 nm bandwidth, and 200 mdeg sensitivity. Furthermore, two CD melting experiment repeats were performed recording C-rich c-Myc at 288 and 320 nm, G-rich c-Myc at 264 and 320 nm, and dsDNA at 253 and 320 nm with the settings as described for full spectrum measurements. Data were zero corrected to 320 nm and baseline drift. The melting temperature (TM) was concluded using the Boltzmann or biphasic fitting curve on the folded fraction data using GraphPad Prism version 10.1.2. Data were processed as mean ± SEM (n = 4) and one-way ANOVA followed by Bonferroni post-hoc test to determine significant changes between peptides and controls.

The next test addresses DAPc. The test can be described thus: UV titration, DAPc. The test is classed as binding. Further details: key to Kd DAPc, 100 mM KCl: Binding classified as non-specific (NS) showed no consistent or concentration-dependent pattern, under the tested conditions; key to Kd DAPc: NS = non-specific binding indicates where no significant pattern of binding was observed at the concentration range of the experiment. The settings on record: for Kd DAPc: UV titration at 350 nm, 10 µM peptide, 10 mM sodium cacodylate pH 6.6, no KCl; for Kd DAPc, 100 mM KCl: UV titration, 10 mM sodium cacodylate 100 mM potassium chloride pH 6.6, two experiments. As for the experimental part: as §1, §2

In another test the test system is c-MycC52 iM. The test can be described thus: Fluorescent indicator displacement (FID) assay with Thiazole Orange. The test is classed as binding. As to conditions: 1 µM c-MycC52, 2 µM TO, 10 mM sodium cacodylate pH 6.6, peptides 25-200 µM, n = 3. As for the experimental part:
Fluorescent indicator displacement (FID) experiments used in this publication are based on the first FID assay developed for iM DNA [35]. The FID experiments were performed on a BMG CLARIOstar plate reader using 96-well, solid black flat-bottom plates. Thiazole Orange (TO) was the indicator, and the stock solution was prepared at 10 mM in DMSO. The TO stock was diluted into the appropriate buffer to 2 µM. Each well received 9 µl of the 2 µM TO solution, was excited at 430 nm, and fluorescence emission at 450 nm was measured; this was normalized to 0% to account for background fluorescence. One microlitre of […] DNA was added to each well and shaken in the plate reader for 30 s using double orbital shaking at 700 rpm and left for 10 min to equilibrate. Following equilibration, fluorescence emission was measured and normalized to 100% representing maximum fluorescence. Peptides were titrated starting at 25 µM, with 0.9 µl additions into each well in triplicate, until a final concentration of 200 µM was reached, and fluorescence emission was measured after each addition. Fluorescence emission for each well was normalized between 0% and 100%, which was taken away from 100 to give the percentage of displacement. The data were analyzed in Origin data analysis software and fitted with a hyperbolic dose–response curve from which the DC50 value was interpolated.
The relative binding of the five peptide ligands to the folded c-MycC52 iM was assessed via a FID assay using TO (Fig. 1). These experiments were performed in 10 mM sodium cacodylate at pH 6.6, the transitional pH of the c-Myc iM-forming sequence. As iM-formation is reduced at higher pH and higher ionic strength, additional stabilizing cations were avoided to allow the highest proportion of iM formation at the highest pH, to represent as close to physiological pH conditions as possible.
Figure 1. Concentration-dependent interaction of peptides with c-MycC52 iM determined via FID assay. The assay was performed with 1 µM c-MycC52 in 10 mM sodium cacodylate, pH 6.6, in the presence of 2 µM TO. Peptide ligands were added in increments of 25 µM up to a final concentration of 200 µM. Data are presented as mean ± SD (n = 3) and fitted using a Hill-Slope dose–response curve.

The next test deals with c-MycC27. Briefly: CD melting of c-MycC27. As to conditions: 10 µM DNA; for TM c-MycC27, first (lower) transition / TM c-MycC27, second (higher) transition: 10 mM NaCaco pH 6.6, 10 molar eqv. peptide, mean ± SEM (n=4); for effect on c-MycC27 thermal stability, in words: pH 6.6, 10 molar equivalents peptide. Type of test: binding. As for the experimental part:
as §3

A further test relates to dsDNA (DS). The test can be described thus: CD melting of double-stranded DNA. The test is classed as binding. The settings on record: for TM DS / ΔTM DS: 10 µM DNA, SEM; for TM DS / effect on dsDNA melting compared to the solvent controls, in words: 10 mM NaCaco pH 6.6, 10 molar eqv. peptide; for TM DS: mean ± SEM (n=4); for ΔTM DS: 10 mM sodium cacodylate pH 6.6, 10 molar equivalents peptide vs DMSO, mean ± SEM (n = 4); for effect on dsDNA melting compared to the solvent controls, in words: 10 µM DS. As for the experimental part:
as §3

The mark [2] stands for this setting: UV titration at 350 nm, 10 µM peptide, 10 mM sodium cacodylate pH 6.6, no KCl, binding did not plateau at the concentration range, read-out: Kd c-MycG52.
[3] abbreviates: read-out: Kd c-MycG52, 100 mM KCl, UV titration, 10 mM sodium cacodylate 100 mM potassium chloride pH 6.6, average of three experiments ± SD, SD.
The mark [4] stands for this setting: 10 mM sodium cacodylate pH 6.6, 10 molar equivalents peptide vs DMSO, mean ± SEM (n = 4), SEM.

Consider `CC(=O)N1CCC[C@H]1C(=O)N[C@H](C(=O)N[C@@H](CC(N)=O)C(=O)N[C@H](C(=O)N[C@@H](CO)C(=O)NCC(=O)N[C@@H](CCCNC(=N)N)C(=O)N[C@@H](CC(N)=O)C(=O)N[C@@H](Cc1ccc(O)cc1)C(=O)N[C@@H](CC(C)C)C(=O)N[C@@H](Cc1ccccc1)C(=O)N[C@@H](CS)C(N)=O)C(C)C)[C@@H](C)O` [Pep-PTN] (Ac-PTNVSGRNYLFC-NH2), for which the Kd (usually the equilibrium constant for the complex coming apart) on c-MycG52 (setting [2]) was above 50 µM. Besides, on c-MycG52 (setting [3]), the equilibrium dissociation constant (Kd) is 45 ± 4 µM. Moreover, the “insulin promoter (ILPR) reporter response” value in test [1] was “no significant change in response”. Moreover, at dsDNA, the “Kd dsDNA” value was “NS” and the “Kd dsDNA, 100 mM KCl” value is reported as “NS”. The “TM c-MycG27” value in the test with c-MycG27 (SEM) turned out to be 50 ± 1.0 °C. Besides, the “ΔTM c-MycG27” value with c-MycG27 (setting [4]) was −1 ± 0.5 °C. Moreover, the “effect on c-MycG27 thermal stability, in words” value in the test on c-MycG27 is on record as “neither stabilized nor destabilized”. Moreover, at DAPc, the “Kd DAPc” value was “NS” and the “Kd DAPc, 100 mM KCl” value is on record as “NS”. Further, in the test on c-MycC52 iM, the “relative binding affinity ranking (TO displacement)” value was “SLC > PTN > VSE > EIE > RVS”. For the same compound, in the test with c-MycC27 (SEM), the “TM c-MycC27, first (lower) transition” value turned out to be 27 ± 0.7 °C and the “TM c-MycC27, second (higher) transition” value turned out to be 79 ± 0.5 °C. Further, in the test with c-MycC27 (setting [4]), the “ΔTM c-MycC27, first value (transition at lower temperature)” value was 0 ± 0.5; 0 ± 0.5 °C and the “ΔTM c-MycC27, second value (transition at higher temperature)” value was 0 ± 0.5; 0 ± 0.5 °C. Besides, in the test with c-MycC27, the “effect on c-MycC27 thermal stability, in words” value was “neither stabilized nor destabilized”. In addition, in the test with dsDNA (DS), the “TM DS” value was 52 ± 1.0 °C; the “ΔTM DS” value came out at 0 ± 0.6 °C; the “effect on dsDNA melting compared to the solvent controls, in words” value was “no effect on dsDNA melting”.
Regarding `CC(=O)N[C@H](C(=O)N[C@@H](CO)C(=O)N[C@@H](CCC(=O)O)C(=O)N[C@@H](C)C(=O)N[C@@H](Cc1c[nH]c2ccccc12)C(=O)N[C@@H](CCCCN)C(=O)N[C@@H](CCC(=O)O)C(=O)N[C@H](C(=O)N[C@@H](CCCCN)C(=O)NCC(=O)N[C@@H](Cc1ccccc1)C(=O)N[C@@H](Cc1ccccc1)C(N)=O)C(C)C)C(C)C` [Pep-VSE] (Ac-VSEAWKEVKGFF-NH2), on c-MycG52 (setting [2]), the Kd is above 50 µM. The Kd on c-MycG52 (setting [3]) was 35 ± 3 µM. The “insulin promoter (ILPR) reporter response” value in test [1] is “no significant change in response”. Also, at dsDNA, the “Kd dsDNA” value is “NS” and the “Kd dsDNA, 100 mM KCl” value is “NS”. In addition, in the test on c-MycG27 (SEM), the “TM c-MycG27” value stood at 48 ± 1.0 °C. For the same compound, in the test on c-MycG27, the “effect on c-MycG27 thermal stability, in words” value is given as “neither stabilized nor destabilized”. Besides, on DAPc, the “Kd DAPc” value is reported as “NS” and the “Kd DAPc, 100 mM KCl” value was “NS”. For the same compound, the “relative binding affinity ranking (TO displacement)” value in the test with c-MycC52 iM is recorded as “SLC > PTN > VSE > EIE > RVS”. In addition, in the test on c-MycC27 (SEM), the “TM c-MycC27, first (lower) transition” value is 26 ± 1.0 °C and the “TM c-MycC27, second (higher) transition” value was found to be 80 ± 0.6 °C. For the same compound, in the test with c-MycC27 (setting [4]), the “ΔTM c-MycC27, first value (transition at lower temperature)” value was 0 ± 0.6 °C. The “effect on c-MycC27 thermal stability, in words” value in the test with c-MycC27 is “neither stabilized nor destabilized”. Also, in the test on dsDNA (DS), the “TM DS” value was 51 ± 0.8 °C; the “ΔTM DS” value turned out to be 0 ± 0.8 °C; the “effect on dsDNA melting compared to the solvent controls, in words” value is recorded as “no effect on dsDNA melting”.
